Eight compounds from paper PMC10055926 can be followed below.

The test system of data set [1] is SARS-CoV-2. Briefly: SARS-CoV-2 viral RNA copy determination in A549-hACE2 cells (RT-qPCR on supernatant). In kind it is cell-based. Conditions: for reduction of SARS-CoV-2 RNA in the supernatant: A549-hACE2, RT-qPCR at 48 hpi; for EC50: read-out: EC50, viral RNA reduction in supernatant.
Data set [2] concerns SARS-CoV-2. Briefly: Immunofluorescence (HCI, spike stain) antiviral assay, SARS-CoV-2 in A549-hACE2. In kind it is cell-based. Conditions: read-out: EC50 against SARS-CoV-2 in A549-hACE2.
For data set [3], the system named is SARS-CoV-2. Briefly: Immunofluorescence (HCI, dsRNA stain) antiviral assay, SARS-CoV-2 in HeLa-hACE2. In kind it is cell-based. Conditions: read-out: EC50 against SARS-CoV-2 in HeLa-hACE2.
The next data set relates to SARS-CoV-1. The experiment in a line: microbe, parasite or virus in culture. In kind it is cell-based. Conditions: 24 h, read-out: EC50 against SARS-CoV-1 in A549-hACE2.
For the next data set, the system named is HCoV-229E. Briefly: microbe, parasite or virus in culture. Conditions: HCI (dsRNA stain), 24 h at 35 °C, read-out: EC50 against HCoV-229E in HeLa-hACE2. In kind it is cell-based, human coronavirus 229E.
The test system of data set [4] is SARS-CoV-2. Briefly: Antiviral assessment in Caco-2 cells by visual CPE scoring. Conditions: read-out: EC50 against SARS-CoV-2 in Caco-2. In kind it is cell-based.
Data set [5] relates to SARS-CoV-2. The experiment in a line: Time-of-addition (TOA) assay in HeLa-hACE2, dsRNA staining. Conditions: HeLa-hACE2, MOI 4, 2.5-5 µM compound, dsRNA readout at 8 hpi. The class given is cell-based.
The subject of data set [6] is SARS-CoV-2.
Data set [7] is described as follows: in vitro. Conditions: African green monkey.
The nature of data set [8]: Cytotoxicity in uninfected A549-hACE2 cells (ATPlite). Conditions: human, A549-hACE2 cells.
Data set [9] has as its system SARS-CoV-2. Briefly: SARS-CoV-2 antiviral assay in VeroE6-eGFP cells (CPE reduction, GFP). Conditions: for EC50: MOI 0.001, 96 h.
The test system of the next data set is HeLa-hACE2 cells. Briefly: Immunofluorescence-based antiviral assay with LysoTracker dye in HeLa-hACE2. Conditions: for LysoTracker signal intensity (in words): HeLa-hACE2, acidic organelle accumulation.
For data set [10], the system named is SARS-CoV-2. Briefly: microbe, parasite or virus in culture. The class given is cell-based, SARS-CoV-2 (Lineage A, B.1). Conditions: for EC50: vRNA (qPCR), read-out: EC50 against SARS-CoV-2 in HNECs; for antiviral activity in HNEC ALI cultures (in words): viral RNA copies in apical washes over three days. In general terms: Quantitative PCR measures a nucleic acid by following its amplification.

The test system of data set [11] is SARS-CoV-2 pseudovirus (SARS2pp). The experiment in a line: microbe, parasite or virus in culture. Conditions: luciferase, 24 h, read-out: EC50, neutralization of SARS2pp entry in VeroE6. The class given is cell-based.
For data set [12] the test system is unchanged. Briefly: microbe, parasite or virus in culture. In kind it is cell-based.
Another data set deals with T1, cathepsin L (Homo sapiens, UniProt P07711).
T1 construct: purchased Eurofins (contract assay)
Briefly: Enzymatic cathepsin L inhibition assay (Eurofins). In kind it is biochemical.

Data set [13] in a line: in vitro. Conditions: human, Caco-2.
The next data set has as its system A549-hACE2 cells. Briefly: Cytotoxicity in uninfected A549-hACE2 cells (ATPlite). Conditions: for CC50: read-out: CC50 in A549-hACE2, Toxicity (ATPlite), uninfected cells.
The nature of data set [14]: in vitro. Conditions: African green monkey. The source holds these as a separate data set.
[15] abbreviates: A549-hACE2, SARS-CoV-2 MOI 0.1, RT-qPCR at 48 hpi.
Where [16] appears, read: Severe acute respiratory syndrome coronavirus 2, A549-hACE2, SARS-CoV-2 MOI 0.1, RT-qPCR at 48 hpi.
Setting [17] is: Severe acute respiratory syndrome coronavirus 2, 24 h.
The mark [18] stands for this setting: Severe acute respiratory syndrome coronavirus.
[19] abbreviates: Severe acute respiratory syndrome coronavirus 2, 96 h, read-out: EC50 against SARS-CoV-2 in VeroE6-eGFP, CPE reduction (GFP).
Setting [20] is: Severe acute respiratory syndrome-related coronavirus, Vero C1008.
[21] abbreviates: Severe acute respiratory syndrome-related coronavirus, VeroE6/TMPRSS2, SARS2pp, mean ± SD, unit inferred, [µM] only in axis labels, read-out: VeroE6 TMPRSS2: EC50 (Figure 6).
[22] abbreviates: read-out: EC50 against SARS-CoV-2 in VeroE6-eGFP, CPE reduction (GFP).

“And” between values parts separate entries of the source, which are not always exact repeats. Identical values can stand only once. “Also recorded” adds a separate entry of the source. Counter-ions that a name gives are not always drawn. Like-named read-outs stand apart in the source and are kept apart here.

T1 sequence (P07711 114-333): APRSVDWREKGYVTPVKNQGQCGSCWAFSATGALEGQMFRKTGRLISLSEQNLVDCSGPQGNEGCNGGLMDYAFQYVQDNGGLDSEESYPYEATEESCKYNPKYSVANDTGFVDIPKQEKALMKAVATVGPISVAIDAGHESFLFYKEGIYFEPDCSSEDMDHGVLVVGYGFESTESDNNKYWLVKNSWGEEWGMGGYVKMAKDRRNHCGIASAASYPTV

The term EC50 denotes the concentration giving half of the maximal effect. With `CCC(CC)COC(=O)[C@H](C)N[P@](=O)(OC[C@H]1O[C@@](C#N)(c2ccc3c(N)ncnn23)[C@H](O)[C@@H]1O)Oc1ccccc1` [Remdesivir, remdesivir], the “reduction of SARS-CoV-2 RNA in the supernatant” value (shortened to “reduction of SARS-CoV-2 RNA”) in the data set on SARS-CoV-2 [1] is recorded as ~ 4.5 log. For the same compound, the EC50 with SARS-CoV-2 [1] (setting [15]) came out at 411 nM; with SARS-CoV-2 [1] (setting [16]), 410 nM; in the data set with SARS-CoV-2 [2] (setting [17]), 180 ± 10 nM; with SARS-CoV-2 [3] (setting [17]), 110 ± 10 nM; with SARS-CoV-1 (setting [18]) it was 330 ± 20 nM; with HCoV-229E (Human coronavirus 229E, 24 h), 110 ± 9 nM. In addition, the EC50 in the data set with SARS-CoV-2 [4] (Severe acute respiratory syndrome coronavirus 2, Caco-2, 48 h) stood at 770 ± 260 nM; in the data set on SARS-CoV-2 [6], 1420 ± 150 nM; in the data set on SARS-CoV-2 [9] (setting [19]) it was 1340 nM. In addition, the “time of addition until which inhibition of dsRNA formation was sustained” value in the data set on SARS-CoV-2 [5] is ~ 4 hpi. The values for the CC50 (in “in vitro [7]”; in [8]) were over 100000 nM and over 25000 nM, respectively. Besides, the “LysoTracker signal intensity (in words)” value with HeLa-hACE2 cells is listed as “neither one of the compounds increased the intensity of the LysoTracker signal”.

For the compound `C[C@H](NC(=O)[C@H](Cc1ccc(O)cc1)NC(=O)OCc1ccccc1)C(=O)C=[N+]=[N-]`, the “reduction of SARS-CoV-2 RNA” value in the data set on SARS-CoV-2 [1] was ~ 4 log and 4 log. In addition, the EC50 in the data set with SARS-CoV-2 [1] (setting [15]) came to 321 nM; in the data set with SARS-CoV-2 [1] (setting [16]), 320 nM; with SARS-CoV-2 [2] (24 h), 50 ± 3 nM; in the data set on SARS-CoV-2 [2] (setting [17]) it was 46 nM; in the data set with SARS-CoV-2 [3] (24 h), 10 ± 1 nM; in the data set with SARS-CoV-2 [3] (setting [17]), 6 nM. The concentration for a half-maximal effect (EC50) with SARS-CoV-1 (setting [18]) is 50 ± 16 nM; in the data set on HCoV-229E, 70 ± 10 nM; in the data set on HCoV-229E (Human coronavirus 229E, 24 h), 69 nM; with SARS-CoV-2 [4] (Severe acute respiratory syndrome coronavirus 2, Caco-2, CPE reduction (manual scoring), MOI 0.01, 48 h) it was over 50000 nM; in the data set with SARS-CoV-2 [10] (Severe acute respiratory syndrome coronavirus 2), over 20000 nM; in data set [11] (setting [20]), 130 nM. The EC50 in [12] (setting [21]) is over 30 µM; on cathepsin L (enzymatic assay, substrate Z-Phe-Arg AMC, one experiment) it was under 50 nM; in the data set with SARS-CoV-2 [9] (setting [19]) it was 1330 ± 490 nM. Besides, the “antiviral activity in HNEC ALI cultures (in words)” value in the data set on SARS-CoV-2 [10] (compound at 20 µM) is “does not inhibit SARS-CoV-2 infection; also recorded: did not show antiviral activity”. In addition, in the data set on SARS-CoV-2 [10] (concentration not given), the “antiviral activity in differentiated HNECs (in words)” value is on record as “did not show antiviral activity”. The “time of addition from which antiviral activity was lost” value in the data set on SARS-CoV-2 [5] was at least 2 h post virus infection. The “activity against SARS2pp in VeroE6 TMPRSS2 (in words)” value in [12] is listed as “not active at all”. The figures for the CC50 (in the data set “in vitro [13]”; in [8]) were over 50000 nM and over 25000 nM, respectively. Further, the “cytotoxicity (in words)” value in the data set with A549-hACE2 cells (uninfected A549-hACE2, ATPlite) is recorded as “did not show cytotoxicity”. The “selectivity index (SI), VeroE6-eGFP SARS-CoV-2” value in the data set with SARS-CoV-2 [9] (CC50/EC50 in VeroE6-eGFP) is reported as over 15. In addition, in the data set with HeLa-hACE2 cells, the “LysoTracker signal intensity (in words)” value is “did not significantly increase the intensity of the LysoTracker signal”.

For the compound `CN(C)C(=O)COC(=O)Cc1ccc(OC(=O)c2ccc(NC(=N)N)cc2)cc1` [Camostat mesylate, camostat mesylate], the EC50 is over 30000 nM in [11] (setting [20]); 18 ± 5.52 µM in data set [12] (setting [21]); about 18 µM in [12] (Severe acute respiratory syndrome-related coronavirus, VeroE6/TMPRSS2, luciferase, 24 h, read-out: EC50, neutralization of SARS2pp entry in VeroE6 TMPRSS2). This compound gave a CC50 in the data set “in vitro [14]” of over 30000 nM.

Take `CC(C)C(=O)OC[C@H]1O[C@@H](n2ccc(NO)nc2=O)[C@H](O)[C@@H]1O` [Molnu-Piravir, molnupiravir]: the EC50 in the data set with SARS-CoV-2 [3] (setting [17]) is 1010 ± 110 nM; in the data set with HCoV-229E (Human coronavirus 229E, 24 h) it was 1320 ± 180 nM. Moreover, the CC50 in “in vitro [7]” is over 100000 nM; in data set [8], over 50000 nM.

For the compound `CC(=O)N[C@@H](CC(C)C)C(=O)N[C@@H](CC(C)C)C(=O)N[C@H](C=O)CCCNC(=N)N` [leupeptin], the “cathepsin L activity (in words)” value at cathepsin L (positive control) was “blocked cathepsin L activity”.

`CN1CCN(C(=O)N[C@@H](Cc2ccccc2)C(=O)N[C@H](/C=C/S(=O)(=O)c2ccccc2)CCc2ccccc2)CC1` [K777]: the EC50 in the data set on SARS-CoV-2 [2] (24 h) was 4 ± 0.2 nM; in the data set on SARS-CoV-2 [3] (24 h), 0.6 ± 0.05 nM; in the data set on SARS-CoV-1 (HCI (spike stain), MOI 0.1) it was 3 ± 0.5 nM; in the data set on HCoV-229E it was 2 ± 0.4 nM; in [11] it was 23 nM; in data set [12] (luciferase, 24 h, read-out: EC50, neutralization of SARS2pp entry in VeroE6 TMPRSS2), 18.6 µM. In the data set on SARS-CoV-2 [9] (setting [22]), the half-maximal effective concentration (EC50) worked out at 540 ± 140 nM. Further, the CC50 was about 50000 nM with VeroE6-eGFP cells, over 30000 nM in the data set on VeroE6 cells and over 50 nM with A549-hACE2 cells. The “concentration at which the LysoTracker signal is significantly increased” value with HeLa-hACE2 cells (HeLa-hACE2, adjusted p-value < 0.05 vs virus control) was at least 2.2 µM.

As for `CC(C)(C)[C@H](NC(=O)C(F)(F)F)C(=O)N1C[C@H]2[C@@H]([C@H]1C(=O)N[C@H](C#N)C[C@@H]1CCNC1=O)C2(C)C` [PF-07321332, nirmatrelvir], the “antiviral activity in HNEC ALI cultures (in words)” value in the data set on SARS-CoV-2 [10] (compound at 2.5 µM) was “did”. Also, the concentration giving a half-maximal response (EC50) in the data set with SARS-CoV-2 [10] is 180 ± 140 nM. In addition, the “time of addition until which inhibition of dsRNA formation was sustained” value in the data set with SARS-CoV-2 [5] was ~ 4 hpi.

In the case of `COc1cccc2[nH]c(C(=O)N[C@@H](CC(C)C)C(=O)N[C@@H](C[C@@H]3CCNC3=O)C(=O)CO)cc12` [PF-00835231], the “reduction of SARS-CoV-2 RNA” value in the data set with SARS-CoV-2 [1] is recorded as ~ 4.8 log. For the same compound, the concentration for a half-maximal effect (EC50) in the data set on SARS-CoV-2 [1] (setting [15]) was 530 nM and 532 nM; in the data set on SARS-CoV-2 [2] (24 h), 180 ± 8 nM; in the data set with SARS-CoV-2 [3] (24 h) it was 160 ± 20 nM; with SARS-CoV-1 (HCI (spike stain), MOI 0.1), 550 ± 40 nM; in the data set with HCoV-229E, 470 ± 40 nM; in the data set on SARS-CoV-2 [9] (setting [22]), over 50000 nM. Moreover, in the data set on SARS-CoV-2 [5], the “time of addition until which inhibition of dsRNA formation was sustained” value was ~ 4 hpi. The values for the CC50 in the data set on VeroE6-eGFP cells and with A549-hACE2 cells were over 20000 nM and over 12500 nM, respectively. In the data set with HeLa-hACE2 cells, the “LysoTracker signal intensity (in words)” value is given as “neither one of the compounds increased the intensity of the LysoTracker signal”.
